Data taken from patent publication US7056734B1, “Differentiation of non-insulin producing cells into insulin producing cells by GLP-1 or exendin-4 and uses thereof” (The United States of America as represented by the …, priority 1998, dated 2006).
Like-named read-outs stand apart in the source and are kept apart here.

Tests used:
AR42J cells [1] = test: Intracellular cAMP in AR42J cells; type: cell-based, rat; settings: 1 h; GLP-1 0.1 to 100 nM, IBMX 100 nM, CCK 0.1 to 100 nM, exendin-4 0.1 to 10 nM
Method: Measurement of cAMP. Cells were grown in 12-well dishes and treated with hormones and reagents±IBMX as described above. They were then washed 3 times in ice-cold PBS and lysed with 1 ml ice-cold […] perchloric acid. The lysates (950 μl) were transferred to microcentrifuge tubes and the pH adjusted to 7.0 using 5 M K2CO3. After centrifugation for 5 min at 10^4 rpm, the supernatant was vacuum dried, and then recovered in 200 μl Tris/EDTA buffer. After addition of 0.15 mM Na2CO3 (50 μl) and 0.15 mM ZnSO^4 (50 μl), followed by incubation for 15 min on ice, the salt precipitate was removed by centrifugation for 15 min at 3.5×10^3 rpm and 50 μl of supernatant was assayed using a cAMP [^3] assay kit (Amersham Corp., Arlington Heights, Ill.), (Steiner et al., 1972).

AR42J cells [2] = test: Intracellular calcium in single AR42J cells (indo-1); type: cell-based, rat
Method: Measurement of intracellular calcium, [Ca^2+]l. AR42J cells were loaded with the fluorescent Ca^2+ probe, indo-1 acetoxymethyl ester (indo-1/AM). […] Both loading with indo-1 and the experiments were carried out at room temperature (22–24° C.). […] The emission field was restricted to a single cell. Indo-1 was excited at 350±5 nm every 5 ms, and the fluorescence emission was split into wavelength bands of 410±5 and 490±5 nm. […] The cell autofluorescence was assessed in a large number of indo-1 non-loaded cells from the same batch. […] Routinely, the cells were exposed to the test solution for 240–300s. Thereafter, the test solution was washed out, while [Ca^2+]l was monitored for additional 120–180s. The test solutions were prepared just prior to the experiment by adding the hormones in standard bathing solution.

ERK = test: MAP kinase (ERK) activity in AR42J cells; type: cell-based, rat; settings: 3 days; for ERK (MAP kinase) activity: GLP-1 10 nM, exendin-4 0.1 nM
Method: MAP Kinase Activity. After treatment, 60 mm dishes of 80% confluent cells were lysed at 4° C. in lysis buffer (in mM): 50 TRIS-HCl, PH 8, 150 NaCl, 5 EDTA, 1% NP-40, 0.25% sodium deoxycholate, 1 NaF, 10 sodium pyrophosphate, 0.1 PMSF, 1 sodium orthovanadate, 20 μg/ml aprotinin, and 10 μg/ml leupeptin. The cell lysate was clarified by centrifugation at 16,000×g at 4° C. for 20 min. The clarified cell lysate was immunoprecipitated overnight at 4° C., rotating with 4.5 μg of ERK1-CT antibody and 40 μl of packed protein G+protein A agarose resin (Oncogene Research Product, Cambridge, Mass.). The immune pellet was assayed for MAPK activity using MBP as the substrate. MBP (18.6 μg) was phosphorylated at 20° C. for 10 min in a final volume of 60 μl containing 20 mM Hepes, PH 7.4, 10 mM MgCl2, 1 mM DTT, 20 uM unlabeled ATP and 40 μCi (3,000 Ci/mmol) [^32P]-ATP. The reaction was terminated by the addition of 25 μl of 3× Laemmli sample buffer and heating at 70° C. for 10 min. MAPK activity was assessed by SDS-PAGE and auto-radiography. The autoradiograms were quantified by densitometry.

pancreata = test: Proliferation and differentiation of pancreatic cells after GLP-1 infusion or exendin-4 injection; type: in vivo, rat; settings: for total number of insulin positive cells: GLP-1 continuous infusion or exendin-4 repeated ip injection for at least two days; for time of maximal differentiation effect: GLP-1 continuous infusion, exendin-4 daily bolus; for persistence of increased number of insulin producing cells after treatment is discontinued: rat, in vivo
Method: Exendin-4, in contrast, was administered intraperitoneally one time daily for five days according to the protocol of Example 2.

AR42J cells [3] = test: Amylase release from AR42J cells; type: cell-based, rat
Method: Cell Culture. AR42J cells were maintained in Dulbecco's modified Eagle's medium (Gibco, Grand Island, N.Y.) (DMEM) supplemented with 10% Fetal Calf Serum, 100 IU/ml penicillin, 100 μg/ml streptomycin and 2 mM glutamine. Cells from passage 23–36 were used throughout this study.
Amylase Assay. For amylase secretion, cells were washed free of medium with 2 ml phosphate buffered saline (PBS). Incubation was then carried out in DMEM containing 15 mM HEPES, 0.2% bovine serum albumin (BSA) and 0.01% soybean trypsin inhibitor. The hormones and reagents of interest were added for 50 min at 37° C. The incubation medium was then immediately removed for amylase determination and the cells were again washed in 2 ml ice-cold PBS. […] The released amylase was expressed as the percentage of the total amylase activity of the cells.

| Compound | intracellular cAMP levels (AR42J cells [1]) | peak [Ca2+]i amplitude, increase over resting indo-1 fluorescence ratio (IFR) (AR42J cells [2]; single cells) | AR42J cells showing [Ca2+]i response (AR42J cells [2]; single cells, CCK 1 nM, glucagon 10 nM) | ERK (MAP kinase) activity (ERK) | total number of insulin positive cells (pancreata) | time of maximal differentiation effect (pancreata) | earliest time at which differentiation effect was observed (pancreata; continuous infusion) [days] | cells in treated pancreata positive for PCNA (pancreata; continuous infusion, five days) | persistence of increased number of insulin producing cells after treatment is discontinued (pancreata) | effect on amylase release when given alone (AR42J cells [3]; 50 min, glucagon 10 or 100 nM, GLP-1 10 nM, insulin 100 nM, 8-Br-cAMP 100 nM, vanadate 1 mM) | effect on CCK-induced amylase release (AR42J cells [3]; combined with CCK (1 nM), genestein 300 μM, vanadate 1 mM) | basal or CCK (1 nM)-induced amylase release after pre-incubation (AR42J cells [3]; pre-incubation 8, 24, 48 or 72 h with GLP-1 (10 nM) and insulin (100 nM)) | potency on [Ca2+]i relative to GLP-1 (AR42J cells [2]) | potency on ERK activation relative to GLP-1 (ERK) | effect on amylase release when given alone (AR42J cells [3]) |
| --- | --- | --- | --- | --- | --- | --- | --- | --- | --- | --- | --- | --- | --- | --- | --- |
| CC[C@H](C)[C@H](NC(=O)[C@H](Cc1ccccc1)NC(=O)[C@H](CCC(=O)O)NC(=O)[C@H](CCCCN)NC(=O)[C@H](C)NC(=O)[C@H](C)NC(=O)[C@H](CCC(N)=O)NC(=O)CNC(=O)[C@H](CCC(=O)O)NC(=O)[C@H](CC(C)C)NC(=O)[C@H](Cc1ccc(O)cc1)NC(=O)[C@H](CO)NC(=O)[C@H](CO)NC(=O)[C@@H](NC(=O)[C@H](CC(=O)O)NC(=O)[C@H](CO)NC(=O)[C@@H](NC(=O)[C@H](Cc1ccccc1)NC(=O)[C@@H](NC(=O)CNC(=O)[C@H](CCC(=O)O)NC(=O)[C@H](C)NC(=O)[C@@H](N)Cc1c[nH]cn1)[C@@H](C)O)[C@@H](C)O)C(C)C)C(=O)N[C@@H](C)C(=O)N[C@@H](Cc1c[nH]c2ccccc12)C(=O)N[C@@H](CC(C)C)C(=O)N[C@H](C(=O)N[C@@H](CCCCN)C(=O)NCC(=O)N[C@@H](CCCNC(=N)N)C(N)=O)C(C)C [GLP-1] | not altered | 1.5–2.5 fold | approximately 50% | markedly increased | increase in total number of insulin positive cells | seven days | 1 | Approximately 20% | at least two weeks | did not influence amylase release | did not influence amylase release | did not increase | – | – | – |
| exendin-4 | did not alter | – | – | markedly increased | increase in total number of insulin positive cells | seven days | – | – | at least two weeks | – | – | – | approximately one order of magnitude more potent | about 100 fold | did not appear to influence amylase release |
